{"source": "PubChem BioAssay AID2060498", "about": "(Molecular Pharmacology Branch, DTP, NCI, 2025);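 further: spheroids exposed to compounds for 7 days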;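 on viability, T/C: 100% = DMSO vehicle control viability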", "tested_on": "171881-019-R-J1-PDC tumor spheroids, viability", "assay": "Anticancer human tumor 171881-019-R-J1-PDC patient-derived invasive breast carcinoma cell line growth inhibition [GQUAD]", "conditions": "spheroids with HUVEC and MSC; for IC50: curve of first compound; for viability, T/C: stronger effect = lower value", "in_short": "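Multi-cell-type spheroids of tumor cells with HUVEC and mesenchymal stem cells, treated with drug combinations. Concentrations descend in half-log steps from near clinical Cmax, or from 10 microM where Cmax is unknown; viability read-out.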", "key": {"[1]": {"conditions": "second compound 0.0316 µM, first compound 0.000999 µM"}, "[2]": {"conditions": "second compound 0.0316 µM, first compound 0.00316 µM"}, "[3]": {"conditions": "second compound 0.0316 µM, first compound 0.00999 µM"}, "[4]": {"conditions": "second compound 0.0316 µM, first compound 0.0316 µM"}, "[5]": {"conditions": "second compound 0.0316 µM, first compound 0.0999 µM"}, "[6]": {"conditions": "second compound 0.0316 µM, first compound 0.316 µM"}, "[7]": {"conditions": "second compound 0.1 µM, first compound 0.000999 µM"}, "[8]": {"conditions": "second compound 0.1 µM, first compound 0.00316 µM"}, "[9]": {"conditions": "second compound 0.1 µM, first compound 0.00999 µM"}, "[10]": {"conditions": "second compound 0.1 µM, first compound 0.0316 µM"}, "[11]": {"conditions": "second compound 0.1 µM, first compound 0.0999 µM"}, "[12]": {"conditions": "second compound 0.1 µM, first compound 0.316 µM"}, "[13]": {"conditions": "second compound 0.316 µM, first compound 0.000999 µM"}, "[14]": {"conditions": "second compound 0.316 µM, first compound 0.00316 µM"}, "[15]": {"conditions": "second compound 0.316 µM, first compound 0.00999 µM"}, "[16]": {"conditions": "second compound 0.316 µM, first compound 0.0316 µM"}, "[17]": {"conditions": "second compound 0.316 µM, first compound 0.0999 µM"}, "[18]": {"conditions": "second compound 0.316 µM, first compound 0.316 µM"}, "[19]": {"conditions": "second compound 1 µM, first compound 0.000999 µM"}, "[20]": {"conditions": "second compound 1 µM, first compound 0.00316 µM"}, "[21]": {"conditions": "second compound 1 µM, first compound 0.00999 µM"}, "[22]": {"conditions": "second compound 1 µM, first compound 0.0316 µM"}, "[23]": {"conditions": "second compound 1 µM, first compound 0.0999 µM"}, "[24]": {"conditions": "second compound 1 µM, first compound 0.316 µM"}, "[25]": {"conditions": "second compound 3.16 µM, first compound 0.000999 µM"}, "[26]": {"conditions": "second compound 3.16 µM, first compound 0.00316 µM"}, "[27]": {"conditions": "second compound 3.16 µM, first compound 0.00999 µM"}, "[28]": {"conditions": "second compound 3.16 µM, first compound 0.0316 µM"}, "[29]": {"conditions": "second compound 3.16 µM, first compound 0.0999 µM"}, "[30]": {"conditions": "second compound 3.16 µM, first compound 0.316 µM"}, "[31]": {"conditions": "second compound 10 µM, first compound 0.000999 µM"}, "[32]": {"conditions": "second compound 10 µM, first compound 0.00316 µM"}, "[33]": {"conditions": "second compound 10 µM, first compound 0.00999 µM"}, "[34]": {"conditions": "second compound 10 µM, first compound 0.0316 µM"}, "[35]": {"conditions": "second compound 10 µM, first compound 0.0999 µM"}, "[36]": {"conditions": "second compound 10 µM, first compound 0.316 µM"}}, "data": [{"smiles": "CC[C@@]1(O)C(=O)OCc2c1cc1n(c2=O)Cc2cc3c(CN(C)C)c(O)ccc3nc2-1", "note": "+ Cc1cnc(CNC(=O)c2c(=O)c3ccc(N4CCCN(C)CC4)nc3n3c2sc2ccccc23)cn1", "values": [{"measurement": "IC50", "setting": "second compound 0.0316 µM", "result": 83.8, "unit": "nM"}, {"measurement": "IC50", "setting": "second compound 0.1 µM", "result": 141, "unit": "nM"}, {"measurement": "IC50", "setting": "second compound 0.316 µM", "result": "> 316", "unit": "nM"}, {"measurement": "IC50", "setting": "second compound 1 µM", "result": "> 316", "unit": "nM"}, {"measurement": "IC50", "setting": "second compound 3.16 µM", "result": "> 316", "unit": "nM"}, {"measurement": "IC50", "setting": "second compound 10 µM", "result": "> 316", "unit": "nM"}, {"measurement": "viability, T/C", "setting": "[1]", "result": 96.2, "unit": "%"}, {"measurement": "viability, T/C", "setting": "[2]", "result": 93.7, "unit": "%"}, {"measurement": "viability, T/C", "setting": "[3]", "result": 89.8, "unit": "%"}, {"measurement": "viability, T/C", "setting": "[4]", "result": 72.3, "unit": "%"}, {"measurement": "viability, T/C", "setting": "[5]", "result": 45.2, "unit": "%"}, {"measurement": "viability, T/C", "setting": "[6]", "result": 40.8, "unit": "%"}, {"measurement": "viability, T/C", "setting": "[7]", "result": 89.5, "unit": "%"}, {"measurement": "viability, T/C", "setting": "[8]", "result": 78.6, "unit": "%"}, {"measurement": "viability, T/C", "setting": "[9]", "result": 76.7, "unit": "%"}, {"measurement": "viability, T/C", "setting": "[10]", "result": 64.1, "unit": "%"}, {"measurement": "viability, T/C", "setting": "[11]", "result": 50, "unit": "%"}, {"measurement": "viability, T/C", "setting": "[12]", "result": 45.8, "unit": "%"}, {"measurement": "viability, T/C", "setting": "[13]", "result": 74, "unit": "%"}, {"measurement": "viability, T/C", "setting": "[14]", "result": 73.1, "unit": "%"}, {"measurement": "viability, T/C", "setting": "[15]", "result": 68.9, "unit": "%"}, {"measurement": "viability, T/C", "setting": "[16]", "result": 60.8, "unit": "%"}, {"measurement": "viability, T/C", "setting": "[17]", "result": 61.3, "unit": "%"}, {"measurement": "viability, T/C", "setting": "[18]", "result": 50.9, "unit": "%"}, {"measurement": "viability, T/C", "setting": "[19]", "result": 71.6, "unit": "%"}, {"measurement": "viability, T/C", "setting": "[20]", "result": 63.2, "unit": "%"}, {"measurement": "viability, T/C", "setting": "[21]", "result": 65.7, "unit": "%"}, {"measurement": "viability, T/C", "setting": "[22]", "result": 60.7, "unit": "%"}, {"measurement": "viability, T/C", "setting": "[23]", "result": 56.4, "unit": "%"}, {"measurement": "viability, T/C", "setting": "[24]", "result": 50.7, "unit": "%"}, {"measurement": "viability, T/C", "setting": "[25]", "result": 63.1, "unit": "%"}, {"measurement": "viability, T/C", "setting": "[26]", "result": 59.9, "unit": "%"}, {"measurement": "viability, T/C", "setting": "[27]", "result": 62.7, "unit": "%"}, {"measurement": "viability, T/C", "setting": "[28]", "result": 57, "unit": "%"}, {"measurement": "viability, T/C", "setting": "[29]", "result": 58.4, "unit": "%"}, {"measurement": "viability, T/C", "setting": "[30]", "result": 50.7, "unit": "%"}, {"measurement": "viability, T/C", "setting": "[31]", "result": 58.5, "unit": "%"}, {"measurement": "viability, T/C", "setting": "[32]", "result": 54.4, "unit": "%"}, {"measurement": "viability, T/C", "setting": "[33]", "result": 54.8, "unit": "%"}, {"measurement": "viability, T/C", "setting": "[34]", "result": 59.7, "unit": "%"}, {"measurement": "viability, T/C", "setting": "[35]", "result": 60.5, "unit": "%"}, {"measurement": "viability, T/C", "setting": "[36]", "result": 48, "unit": "%"}]}, {"smiles": "Cn1ncnc1[C@H]1c2n[nH]c(=O)c3cc(F)cc(c23)N[C@@H]1c1ccc(F)cc1", "note": "+ Cc1cnc(CNC(=O)c2c(=O)c3ccc(N4CCCN(C)CC4)nc3n3c2sc2ccccc23)cn1", "values": [{"measurement": "IC50", "setting": "second compound 0.0316 µM", "result": "> 316", "unit": "nM"}, {"measurement": "IC50", "setting": "second compound 0.1 µM", "result": "> 316", "unit": "nM"}, {"measurement": "IC50", "setting": "second compound 0.316 µM", "result": "> 316", "unit": "nM"}, {"measurement": "IC50", "setting": "second compound 1 µM", "result": "> 316", "unit": "nM"}, {"measurement": "IC50", "setting": "second compound 3.16 µM", "result": "> 316", "unit": "nM"}, {"measurement": "IC50", "setting": "second compound 10 µM", "result": "> 316", "unit": "nM"}, {"measurement": "viability, T/C", "setting": "[1]", "result": 94.5, "unit": "%"}, {"measurement": "viability, T/C", "setting": "[2]", "result": 86.1, "unit": "%"}, {"measurement": "viability, T/C", "setting": "[3]", "result": 95.2, "unit": "%"}, {"measurement": "viability, T/C", "setting": "[4]", "result": 87.2, "unit": "%"}, {"measurement": "viability, T/C", "setting": "[5]", "result": 79.1, "unit": "%"}, {"measurement": "viability, T/C", "setting": "[6]", "result": 73.6, "unit": "%"}, {"measurement": "viability, T/C", "setting": "[7]", "result": 82.2, "unit": "%"}, {"measurement": "viability, T/C", "setting": "[8]", "result": 83.2, "unit": "%"}, {"measurement": "viability, T/C", "setting": "[9]", "result": 82.4, "unit": "%"}, {"measurement": "viability, T/C", "setting": "[10]", "result": 76, "unit": "%"}, {"measurement": "viability, T/C", "setting": "[11]", "result": 63.3, "unit": "%"}, {"measurement": "viability, T/C", "setting": "[12]", "result": 59.9, "unit": "%"}, {"measurement": "viability, T/C", "setting": "[13]", "result": 73.7, "unit": "%"}, {"measurement": "viability, T/C", "setting": "[14]", "result": 74.3, "unit": "%"}, {"measurement": "viability, T/C", "setting": "[15]", "result": 67.5, "unit": "%"}, {"measurement": "viability, T/C", "setting": "[16]", "result": 63.5, "unit": "%"}, {"measurement": "viability, T/C", "setting": "[17]", "result": 64.4, "unit": "%"}, {"measurement": "viability, T/C", "setting": "[18]", "result": 65.1, "unit": "%"}, {"measurement": "viability, T/C", "setting": "[19]", "result": 68, "unit": "%"}, {"measurement": "viability, T/C", "setting": "[20]", "result": 59.8, "unit": "%"}, {"measurement": "viability, T/C", "setting": "[21]", "result": 70.4, "unit": "%"}, {"measurement": "viability, T/C", "setting": "[22]", "result": 63.5, "unit": "%"}, {"measurement": "viability, T/C", "setting": "[23]", "result": 63.5, "unit": "%"}, {"measurement": "viability, T/C", "setting": "[24]", "result": 61.9, "unit": "%"}, {"measurement": "viability, T/C", "setting": "[25]", "result": 61.3, "unit": "%"}, {"measurement": "viability, T/C", "setting": "[26]", "result": 60.1, "unit": "%"}, {"measurement": "viability, T/C", "setting": "[27]", "result": 61.2, "unit": "%"}, {"measurement": "viability, T/C", "setting": "[28]", "result": 64.7, "unit": "%"}, {"measurement": "viability, T/C", "setting": "[29]", "result": 65.1, "unit": "%"}, {"measurement": "viability, T/C", "setting": "[30]", "result": 59.1, "unit": "%"}, {"measurement": "viability, T/C", "setting": "[31]", "result": 58.6, "unit": "%"}, {"measurement": "viability, T/C", "setting": "[32]", "result": 63, "unit": "%"}, {"measurement": "viability, T/C", "setting": "[33]", "result": 60.4, "unit": "%"}, {"measurement": "viability, T/C", "setting": "[34]", "result": 59.9, "unit": "%"}, {"measurement": "viability, T/C", "setting": "[35]", "result": 65.9, "unit": "%"}, {"measurement": "viability, T/C", "setting": "[36]", "result": 60.4, "unit": "%"}]}]}
